PubChem BioAssay (NCI)
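A five-concentration, 48-hour dose response in 96-well plates underlies each endpoint, interpolated linearly between surrounding concentrations. Here, GI50 denotes the concentration required for 50% inhibition of growth. At the TGI there is no net growth.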

Key:
Test in all cases: inhibition of tumour cell growth, NCI panel, 48 h
[1] = tested on: MOLT-4 leukemia
[2] = tested on: A549 NSCLC
[3] = tested on: SK-MEL-5 melanoma
[4] = tested on: SNB-19 CNS
[5] = tested on: CCRF-CEM leukemia
[6] = tested on: SF-295 CNS
[7] = tested on: ACHN renal
[8] = tested on: MALME-3M melanoma
[9] = tested on: SK-MEL-2 melanoma
[10] = tested on: HT29 colon
[11] = tested on: OVCAR-3 ovarian
[12] = tested on: HOP-62 NSCLC
[13] = tested on: MCF7 breast
[14] = tested on: COLO 205 colon
[15] = tested on: SF-268 CNS
[16] = tested on: A498 renal
[17] = tested on: HOP-92 NSCLC
[18] = tested on: NCI-H460 lung
[19] = tested on: TK-10 renal
[20] = tested on: HS 578T breast
[21] = tested on: T-47D breast
[22] = tested on: OVCAR-5 ovarian
[23] = tested on: RPMI-8226 leukemia
[24] = tested on: SF-539 CNS
[25] = tested on: SNB-75 CNS
[26] = tested on: M14 melanoma
[27] = tested on: SW-620 colon
[28] = tested on: RXF 393 renal
[29] = tested on: CAKI-1 renal
[30] = tested on: MDA-MB-435
[31] = tested on: DU-145 prostate
[32] = tested on: SK-MEL-28 melanoma
[33] = tested on: MDA-MB-231 breast
[34] = tested on: NCI/ADR-RES ovarian
[35] = tested on: HCT-116 colon
[36] = tested on: HL-60(TB) leukemia
[37] = tested on: NCI-H226 lung
[38] = tested on: SN12C renal
[39] = tested on: 786-0 renal
[40] = tested on: UO-31 renal
[41] = tested on: OVCAR-4 ovarian
[42] = tested on: IGROV1 ovarian
[43] = tested on: UACC-62 melanoma
[44] = tested on: U251 CNS
[45] = tested on: K-562 leukemia
[46] = tested on: SK-OV-3 ovarian
[47] = tested on: OVCAR-8 ovarian
[48] = tested on: BT-549 breast
[49] = tested on: LOX IMVI melanoma
[50] = tested on: KM12 colon
[51] = tested on: HCC-2998 colon
[52] = tested on: EKVX NSCLC
[53] = tested on: NCI-H23 lung
[54] = tested on: NCI-H522 lung
[55] = tested on: HCT-15 colon
[56] = tested on: PC-3 prostate

SMILES: N#Cc1c(-c2ccc(Cl)cc2)csc1NC(=O)Nc1ccc(Cl)c(C(F)(F)F)c1
- GI50 [1]: 605 nM
- TGI [1]: 5060 nM
- GI50 [2]: 630 nM
- TGI [2]: 12400 nM
- GI50 [3]: 639 nM
- TGI [3]: 3700 nM
- GI50 [4]: 1270 nM
- TGI [4]: 35200 nM
- GI50 [5]: 243 nM
- TGI [5]: 7670 nM
- GI50 [6]: 326 nM
- TGI [6]: 1870 nM
- GI50 [7]: 234 nM
- TGI [7]: 5180 nM
- GI50 [8]: 1010 nM
- TGI [8]: 3940 nM
- GI50 [9]: 872 nM
- TGI [9]: 7350 nM
- GI50 [10]: 560 nM
- TGI [10]: 3540 nM
- GI50 [11]: 262 nM
- TGI [11]: 1470 nM
- GI50 [12]: 1010 nM
- TGI [12]: 4420 nM
- GI50 [13]: 229 nM
- TGI [13]: 11100 nM
- GI50 [14]: 895 nM
- TGI [14]: 2580 nM
- GI50 [15]: 1290 nM
- TGI [15]: 21300 nM
- GI50 [16]: 536 nM
- TGI [16]: 5680 nM
- GI50 [17]: 222 nM
- TGI [17]: 2090 nM
- GI50 [18]: 209 nM
- TGI [18]: 1200 nM
- GI50 [19]: 757 nM
- TGI [19]: 11100 nM
- GI50 [20]: 1360 nM
- TGI [20]: 8240 nM
- GI50 [21]: 106 nM
- TGI [21]: 696 nM
- GI50 [22]: 4770 nM
- TGI [22]: > 50000 nM
- GI50 [23]: 153 nM
- TGI [23]: 1140 nM
- GI50 [24]: 1500 nM
- TGI [24]: 6960 nM
- GI50 [25]: 1360 nM
- TGI [25]: 7720 nM
- GI50 [26]: 1140 nM
- TGI [26]: 8350 nM
- GI50 [27]: 255 nM
- TGI [27]: 2950 nM
- GI50 [28]: 2050 nM
- TGI [28]: 17400 nM
- GI50 [29]: 691 nM
- TGI [29]: 5570 nM
- GI50 [30]: 1490 nM
- TGI [30]: > 50000 nM
- GI50 [31]: 527 nM
- TGI [31]: 11200 nM
- GI50 [32]: 1850 nM
- TGI [32]: 40100 nM
- GI50 [33]: 995 nM
- TGI [33]: 6240 nM
- GI50 [34]: 536 nM
- TGI [34]: 13400 nM
- GI50 [35]: 224 nM
- TGI [35]: 6420 nM
- GI50 [36]: 793 nM
- TGI [36]: 2110 nM
- GI50 [37]: 1120 nM
- TGI [37]: 12400 nM
- GI50 [38]: 348 nM
- TGI [38]: > 50000 nM
- GI50 [39]: 3180 nM
- TGI [39]: 13400 nM
- GI50 [40]: 1470 nM
- TGI [40]: > 50000 nM
- GI50 [41]: 691 nM
- TGI [41]: 3460 nM
- GI50 [42]: 626 nM
- TGI [42]: 18700 nM
- GI50 [43]: 326 nM
- TGI [43]: 8640 nM
- GI50 [44]: 607 nM
- TGI [44]: 1910 nM
- GI50 [45]: 177 nM
- TGI [45]: 6270 nM
- GI50 [46]: 2490 nM
- TGI [46]: 14400 nM
- GI50 [47]: 388 nM
- TGI [47]: 15700 nM
- GI50 [48]: 1210 nM
- TGI [48]: 4540 nM
- GI50 [49]: 1140 nM
- TGI [49]: 7380 nM
- GI50 [50]: 251 nM
- TGI [50]: 6960 nM
- GI50 [51]: 1330 nM
- TGI [51]: 17100 nM
- GI50 [52]: 385 nM
- TGI [52]: > 50000 nM
- GI50 [53]: 201 nM
- TGI [53]: 16700 nM
- GI50 [54]: 121 nM
- TGI [54]: 550 nM
- GI50 [55]: 208 nM
- TGI [55]: 5400 nM
- GI50 [56]: 161 nM
- TGI [56]: 2040 nM
